Test results taken from article PMC11903455 (Frontiers in Pharmacology, 2025).
Counter-ions that a name gives are not always drawn. Like-named read-outs stand apart in the source and are kept apart here.

Tests used:
[1] = system: rats with corticosterone-induced anxiety-like depression; test: Morris water maze test; format: in vivo, rat
Description: Anxiety-like depression rat model is induced by chronic induction of corticosterone. Five-week-old SD male rats (8/cage) randomly received 0.45% soluble Corticosterone suspension in β-cyclodextrin. The number of rats in each group has been supplemented in part 1.2 of the manuscript method. Specifically described as “The rats were randomly divided into 7 groups, 8 rats in each group, a total of 56 rats. The number of groups were model group, blank control group, positive drug group, low, middle, and high dose of Crocin I group, and gardenia extract group respectively. The model was established by subcutaneous injection of corticosterone (20 mg⋅kg^−1) for 21 consecutive days. […] The control group and model group were given the same volume of normal saline. […]
(§1) After the model was established. […] Depression was assessed by the preference for sweet foods in healthy rats ([Tan et al., 2020]) Details were provided in the Additional file: SI 1.2-1.3.
The water maze round pool was divided into Ⅰ, Ⅱ, Ⅲ, and Ⅳ quadrants. […] The position was placed once along the Ⅰ, Ⅱ, Ⅲ, and Ⅳ quadrants respectively, and the time of finding the platform within 60 seconds was recorded. […] After 5 days, the platform was removed, the animals were put into the pool from the original platform, and the number of rats crossing the target quadrant within 60 seconds was recorded.

[2] = system: Serotonin transporter (5-HTT); test: ELISA of brain tissue: 5-HTT; format: in vivo, rat
Method: (§2) Anxiety-like depression rat model is induced by chronic induction of corticosterone. Five-week-old SD male rats (8/cage) randomly received 0.45% soluble Corticosterone suspension in β-cyclodextrin. The number of rats in each group has been supplemented in part 1.2 of the manuscript method. Specifically described as “The rats were randomly divided into 7 groups, 8 rats in each group, a total of 56 rats. […] The model was established by subcutaneous injection of corticosterone (20 mg⋅kg^−1) for 21 consecutive days. […] The control group and model group were given the same volume of normal saline. Solution preparation methods are described in Supplementary Material S1.1.
(§3) The contents of Serotonin transporter (5-HTT, JW.RA1057), dopamine (DA, JW.RA1621), γ-aminobutyric acid (GABA, JW.RA1389) and noradrenaline (NA, JW.RA2154) in the hippocampus were measured by ELISA kit. The tissue samples were added to PBS low-temperature homogenate according to 1:10, and the homogenate was centrifuged at 10,000 rpm at 4 °C […] for 10 min. The supernatant was taken to detect the content of the sample.

[3] = system: γ-aminobutyric acid (GABA); test: ELISA of brain tissue: GABA; format: in vivo, rat
Method: as §2, §3

dopamine (DA) = test: ELISA of brain tissue: DA; format: in vivo, rat; conditions: for brain DA compared with the control group: crocin I high-dose group, positive drug group
Method: as §2, §3

cortical neurons = test: Nissl staining of prefrontal cortex; format: in vivo, rat; conditions: crocin I low, medium, high doses; Gardenia extract 0.9 g/kg; positive drug 5 mg/kg
Description: (§4) Anxiety-like depression rat model is induced by chronic induction of corticosterone. Five-week-old SD male rats (8/cage) randomly received 0.45% soluble Corticosterone suspension in β-cyclodextrin. The number of rats in each group has been supplemented in part 1.2 of the manuscript method. Specifically described as “The rats were randomly divided into 7 groups, 8 rats in each group, a total of 56 rats. The number of groups were model group, blank control group, positive drug group, low, middle, and high dose of Crocin I group, and gardenia extract group respectively. The model was established by subcutaneous injection of corticosterone (20 mg⋅kg^−1) for 21 consecutive days. […] The control group and model group were given the same volume of normal saline. Solution preparation methods are described in Supplementary Material S1.1.
(§5) The rats were deeply anesthetized with 2% sodium pentobarbital. After 15 min, the rats heart were perfused and fixed with normal saline and 4% paraformaldehyde, respectively. Then the brain tissues of rats in different groups were collected. The brain tissue was cryosectioned at a thickness of 3 μm, and then Nissl staining was performed to analyze the hippocampal region of interest. The staining process is detailed in Supplementary Material S1.4.
After the behavioral evaluation of the rats, the rats were anesthetized and decapitated to take the brain. […]

[4] = system: rats with corticosterone-induced anxiety-like depression; test: Sucrose (sugar water) preference test; format: in vivo, rat; conditions: corticosterone model rats; crocin I 2.25, 4.5, 9 mg/kg intragastric
Description: as §4, §1
1% sucrose aqueous solution was used in the experiment. […] On the day of the test, two bottles containing the same volume of 1% sucrose solution and ordinary water were put into cages, weighed before and after drinking water, and the liquid consumption in the two bottles within 24 hours was calculated.

Caco-2 cells = conditions: no method or reference given; cited from earlier work
[5] = no reference given; cited from earlier work
noradrenaline (NA) = test: ELISA of brain tissue: NA; format: in vivo, rat
Method: as §2, §3

hippocampal neurons = test: Nissl staining of hippocampus (DG, CA1, CA3); format: in vivo, rat; conditions: for neuronal cell damage in the dentate gyrus region: after administration, corticosterone model rats; for number of Nissl bodies, hippocampal CA3: crocin I low, medium, high dose, positive drug 5 mg/kg; for number of Nissl bodies, hippocampal CA1: high dose crocin I (9 mg/kg), positive control drug 5 mg/kg
Description: as §4, §5
After the behavioral evaluation of the rats, the rats were anesthetized and decapitated to take the brain. The brain tissue was fixed with 4% paraformaldehyde for 24 hours. Rinse with normal saline to remove the residual fixative. Dehydration with 30% sucrose solution. It was embedded with an OTC embedding agent, and after it was completely frozen, the shape was trimmed and the sections were frozen. According to the localization map of rat brain sections, the target locations of the hippocampus and prefrontal cortex of rats were selected and sectioned continuously in the coronal plane with a thickness of 3 µm. Stick the slides with adhesive slides and bake the slides in an oven at 37 ℃ for half an hour. The slices were stained with methyl violet dye and rinsed with distilled water. Nissl Differentiation was used to differentiate for 5 s and most of the staining solution was removed. The slides were placed successively in different concentrations of ethanol and gradient dehydration (0%, 50%, 75%, and 95% ethanol, the section and background color should be observed under a microscope during dehydration). After dehydration, the sections were sealed with transparent and neutral gum in anhydrous ethanol Ⅰ, Ⅱ, anhydrous ethanol-xylene (1:1), xylene Ⅰ, and Ⅱ solution, respectively, and observed under a microscope.

[6] = Crocetin content of plasma sample by SERS and liquid phase determination; format: in vivo; conditions: SD, rat, oral, 4.5 mg kg^−1, 0.5 h medium-dose plasma
Method: The samples were analyzed by high performance liquid chromatography.
The treatment of plasma samples is described in Procedure 2.2.3. 50 uL of treated plasma was added into silver nanoparticle solution with an equal volume concentration of 10 mg/mL 50 uL mixed solution was placed on a round quartz sheet with a diameter of 1 cm, […] and the Raman spectrum was detected and recorded. Detection conditions: scanning time 3 s, laser power: 80 mW. Spectra are acquired by Optosky Raman microscopy software.
A standard curve was prepared based on the peak intensity of the characteristic peak at 1,532 cm^−1 and the content was determined, as shown in Figure 10C.

[7] = Stability of crocetin in plasma samples; format: in vitro ADME, rat; conditions: within one week at -20°C, n = 6
Method: The procedures for precision, stability, limit of quantitation, and sample recovery are described in the Supplementary Material S2.4 Methodological Investigations section.
Plasma samples were collected 30 minutes after administration (n=6). The stability of the samples was calculated within one week at -20°C.

[8] = gardenia extract 0.9 g/kg, positive drug paroxetine hydrochloride 5 mg/kg

With `CC(/C=C/C=C(\C)C(=O)O[C@@H]1O[C@H](CO[C@@H]2O[C@H](CO)[C@@H](O)[C@H](O)[C@H]2O)[C@@H](O)[C@H](O)[C@H]1O)=C\C=C\C=C(C)\C=C\C=C(/C)C(=O)O[C@@H]1O[C@H](CO[C@@H]2O[C@H](CO)[C@@H](O)[C@H](O)[C@H]2O)[C@@H](O)[C@H](O)[C@H]1O` [Crocin I, crocin I] the “improvement of spatial memory ability” value ([1]; crocin I 2.25, 4.5, 9 mg/kg) was “dose-dependent”, the escape latency ([1]; crocin I low, middle and high dose groups (2.25, 4.5, 9 mg/kg)) was “decreased” and the “5-HTT expression level in brain tissue” value ([2]; High dose crocin I 9 mg/kg) was 427.64 ± 7.00 ng/mL. The “5-HTT expression level in brain tissue” value ([2]; Low dose crocin I 2.25 mg/kg, control 238.58, model 573.69) was 374.76 ± 13.24 ng/mL, the “5-HTT expression level in brain tissue” value ([2]; Medium dose crocin I 4.5 mg/kg) was 459.21 ± 5.21 ng/mL and the “content of 5-HTT compared with the model group” value ([2]; crocin I low-, medium-, high-dose, gardenia extract, positive drug, P < 0.001) was “significantly reduced”. For the same molecule, the “GABA expression level in brain tissue” value ([3]; High dose crocin I 9 mg/kg) was 6.83 ± 0.29 µmol/L, the “GABA expression level in brain tissue” value ([3]; Low dose crocin I 2.25 mg/kg, control 7.43, model 4.99) was 5.28 ± 0.21 µmol/L and the “GABA expression level in brain tissue” value ([3]; Medium dose crocin I 4.5 mg/kg) was 5.49 ± 0.29 µmol/L. For the same molecule, the “GABA content compared with the model group” value ([3]; crocin I low-dose group) was “no significant difference”, the “DA expression level in brain tissue” value (dopamine (DA); High dose crocin I 9 mg/kg) was 80.22 ± 2.64 nmol/L and the “DA expression level in brain tissue” value (dopamine (DA); Low dose crocin I 2.25 mg/kg, control 84.66, model 169.17) was 147.33 ± 3.72 nmol/L. For the same molecule, the “DA expression level in brain tissue” value (dopamine (DA); Medium dose crocin I 4.5 mg/kg) was 137.22 ± 1.31 nmol/L, the “brain DA compared with the control group” value (dopamine (DA)) was “no significant difference” and the “number of Nissl bodies, prefrontal cortex” value (cortical neurons) was “increased”. For the same molecule, the sugar water preference [4] was “dose-dependent”, the “apparent permeability coefficient Papp” value (Caco-2 cells) was “low” and the “oil-water partition coefficient (logP)” value [5] was −1.03. For the same molecule, the “NA expression level in brain tissue” value (noradrenaline (NA); High dose crocin I 9 mg/kg) was 5.60 ± 0.02 ng/mL, the “NA expression level in brain tissue” value (noradrenaline (NA); Low dose crocin I 2.25 mg/kg, control 3.78, model 8.08) was 5.99 ± 0.02 ng/mL and the “NA expression level in brain tissue” value (noradrenaline (NA); Medium dose crocin I 4.5 mg/kg) was 6.73 ± 0.18 ng/mL. The “neuronal cell damage in the dentate gyrus region” value (hippocampal neurons) was “significantly improved”, the “dentate gyrus morphology (angle/shape)” value (hippocampal neurons; crocin I high dose 9 mg/kg) was “significant changes” and the “dentate gyrus morphology (angle/shape)” value (hippocampal neurons; crocin I low dose 2.25 mg/kg) was “no significant change”. For the same molecule, the “number of Nissl bodies, hippocampal CA3” value (hippocampal neurons; gardenia extract 0.9 g/kg) was “increased in a dependent manner”, the “dentate gyrus morphology (angle/shape)” value (hippocampal neurons; crocin I middle dose 4.5 mg/kg) was “significant changes” and the “number of Nissl bodies, hippocampal CA1” value (hippocampal neurons; gardenia extract 0.9 g/kg) was “significantly increased”. For the same molecule, the “number of Nissl bodies, dentate gyrus” value (hippocampal neurons; high-dose crocin I (9 mg/kg), gardenia extract 0.9 g/kg) was “increased significantly”.
For `CC(/C=C/C=C(\C)C(=O)O)=C\C=C\C=C(C)\C=C\C=C(/C)C(=O)O` [crocetin], the concentration at 0.5 h ([6]; AgNPs, peak 1,532 cm^-1, read-out: crocetin content in plasma by SERS) was 433 ng/mL, the concentration at 0.5 h ([6]; same sample, read-out: crocetin content in plasma by liquid phase determination) was 486 ng/mL and the “stability in plasma samples: Accuracy (RE, %)” value (shortened to “stability … (RE, %)”) ([7]; High dose plasma sample 837.96 ng/mL) was 99.64%. The “stability … (RE, %)” value ([7]; Low dose plasma sample 292.60 ng/mL) was 97.76%, the “stability … (RE, %)” value ([7]; Medium dose plasma sample 527.32 ng/mL) was 97.14% and the “apparent permeability coefficient Papp” value (Caco-2 cells) was “high”.
For `Fc1ccc([C@@H]2CCNC[C@H]2COc2ccc3c(c2)OCO3)cc1` [Positive, paroxetine hydrochloride, reference compound], the “GABA expression level in brain tissue” value [3, 8] was 7.34 ± 0.30 µmol/L, the “brain DA compared with the control group” value (dopamine (DA)) was “no significant difference” and the “DA expression level in brain tissue” value (dopamine (DA); [8]) was 81.70 ± 1.94 nmol/L. The “number of Nissl bodies, prefrontal cortex” value (cortical neurons) was “increase”, the “NA expression level in brain tissue” value (noradrenaline (NA); [8]) was 4.64 ± 0.09 ng/mL and the “neuronal cell damage in the dentate gyrus region” value (hippocampal neurons) was “significantly improved”. The “number of Nissl bodies, hippocampal CA3” value (hippocampal neurons; gardenia extract 0.9 g/kg) was “no significant increase” and the “number of Nissl bodies, hippocampal CA1” value (hippocampal neurons; gardenia extract 0.9 g/kg) was “significantly increased”.
